Data from the kinase profiling compilation of Christmann-Franck et al. (2016).

What was measured:
Assay in all cases: KINOMEscan competition binding
Settings in all cases: compound 2.0 µM
[1] = target: STK32B (human) (UniProt Q9NY57)
[2] = target: DMPK (human) (UniProt Q09013)
[3] = target: STK11 (human) (UniProt Q15831)
[4] = tested on: LRRK2 (human), Q5S007 [G2019S]
[5] = target: CLK4 (human) (UniProt Q9HAZ1)
[6] = target: CaMK1 (human) (UniProt Q14012)
[7] = target: YSK4 (human) (UniProt Q56UN5)
[8] = target: NTRK1 (human) (UniProt P04629)
[9] = target: SRPK2 (human) (UniProt P78362)
[10] = tested on: PIK3CA (human), P42336 [M1043I]
[11] = tested on: KIT (human), P10721 [V559D]
[12] = target: INSRR (human) (UniProt P14616)
[13] = target: BMPR1A (human) (UniProt P36894)
[14] = target: MYLK4 (human) (UniProt Q86YV6)
[15] = target: MAP3K2 (human) (UniProt Q9Y2U5)
[16] = target: CASK (human) (UniProt O14936)
[17] = target: CDK19 (human) (UniProt Q9BWU1)
[18] = tested on: MET (human), P08581 [Y1235D]
[19] = tested on: PIK3CA (human), P42336 [H1047Y]
[20] = target: TTK (human) (UniProt P33981)
[21] = target: DDR1 (human) (UniProt Q08345)
[22] = target: CSNK2A1 (human) (UniProt P68400)
[23] = target: CSNK1D (human) (UniProt P48730)
[24] = target: CDKL2 (human) (UniProt Q92772)
[25] = target: MAP3K6 (human) (UniProt O95382)
[26] = target: DDR2 (human) (UniProt Q16832)
[27] = target: RIPK4 (human) (UniProt P57078)
[28] = target: TSSK1B (human) (UniProt Q9BXA7)
[29] = target: MAP3K1 (human) (UniProt Q13233)
[30] = target: MKNK1 (human) (UniProt Q9BUB5)
[31] = tested on: EGFR (human), P00533 [747-751 del / S ins]
[32] = target: PIM2 (human) (UniProt Q9P1W9)
[33] = target: FLT3 (human) (UniProt P36888)
[34] = target: STK24 (human) (UniProt Q9Y6E0)
[35] = target: MAPK12 (human) (UniProt P53778)
[36] = target: NLK (human) (UniProt Q9UBE8)
[37] = target: SIK2 (human) (UniProt Q9H0K1)
[38] = target: CSNK2A2 (human) (UniProt P19784)
[39] = tested on: FLT3 (human), P36888 [D835H]
[40] = tested on: FLT3 (human), P36888 [N841I]
[41] = target: EPHA8 (human) (UniProt P29322)
[42] = target: MARK4 (human) (UniProt Q96L34)
[43] = target: DAPK1 (human) (UniProt P53355)

Sequence of EPHA8 (human) (P29322 whole entry, looked up): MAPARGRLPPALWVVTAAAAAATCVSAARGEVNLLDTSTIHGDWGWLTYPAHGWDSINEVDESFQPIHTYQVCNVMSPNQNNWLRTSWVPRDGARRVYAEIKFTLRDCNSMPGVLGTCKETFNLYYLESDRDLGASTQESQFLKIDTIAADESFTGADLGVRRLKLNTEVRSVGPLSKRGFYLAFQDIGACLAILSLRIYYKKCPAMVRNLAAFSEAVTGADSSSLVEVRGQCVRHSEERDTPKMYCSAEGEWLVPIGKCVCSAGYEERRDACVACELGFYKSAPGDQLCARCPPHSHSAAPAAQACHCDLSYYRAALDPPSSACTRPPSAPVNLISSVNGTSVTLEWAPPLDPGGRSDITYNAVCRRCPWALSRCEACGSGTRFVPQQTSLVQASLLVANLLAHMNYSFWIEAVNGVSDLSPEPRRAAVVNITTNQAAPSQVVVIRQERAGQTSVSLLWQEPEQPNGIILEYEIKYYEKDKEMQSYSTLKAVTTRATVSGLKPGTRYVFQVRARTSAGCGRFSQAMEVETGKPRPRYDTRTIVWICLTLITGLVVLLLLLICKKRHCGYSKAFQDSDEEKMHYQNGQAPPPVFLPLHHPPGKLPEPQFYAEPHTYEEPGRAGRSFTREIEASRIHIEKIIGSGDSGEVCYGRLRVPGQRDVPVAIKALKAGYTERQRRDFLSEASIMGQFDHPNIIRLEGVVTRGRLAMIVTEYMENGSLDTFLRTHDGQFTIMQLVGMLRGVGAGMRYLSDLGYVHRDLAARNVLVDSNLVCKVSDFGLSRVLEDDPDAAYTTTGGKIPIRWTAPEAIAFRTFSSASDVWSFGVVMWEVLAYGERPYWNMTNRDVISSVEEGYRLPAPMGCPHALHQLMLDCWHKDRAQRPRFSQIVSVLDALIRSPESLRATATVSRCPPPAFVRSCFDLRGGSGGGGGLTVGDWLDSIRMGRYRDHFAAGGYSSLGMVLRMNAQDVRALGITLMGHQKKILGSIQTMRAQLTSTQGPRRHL
Sequence of STK24 (human) (Q9Y6E0 whole entry, looked up): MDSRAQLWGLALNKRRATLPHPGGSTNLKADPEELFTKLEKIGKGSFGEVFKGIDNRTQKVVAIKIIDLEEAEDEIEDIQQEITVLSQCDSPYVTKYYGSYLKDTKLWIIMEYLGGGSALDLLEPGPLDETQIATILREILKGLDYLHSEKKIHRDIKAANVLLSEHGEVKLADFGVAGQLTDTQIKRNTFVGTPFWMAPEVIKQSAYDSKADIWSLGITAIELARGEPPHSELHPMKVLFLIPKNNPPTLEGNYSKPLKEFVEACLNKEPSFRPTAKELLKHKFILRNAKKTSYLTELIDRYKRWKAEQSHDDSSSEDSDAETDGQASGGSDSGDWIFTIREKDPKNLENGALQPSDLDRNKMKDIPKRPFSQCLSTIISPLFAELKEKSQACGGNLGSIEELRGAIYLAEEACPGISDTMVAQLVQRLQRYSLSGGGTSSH
Sequence of MAPK12 (human) (P53778 whole entry, looked up): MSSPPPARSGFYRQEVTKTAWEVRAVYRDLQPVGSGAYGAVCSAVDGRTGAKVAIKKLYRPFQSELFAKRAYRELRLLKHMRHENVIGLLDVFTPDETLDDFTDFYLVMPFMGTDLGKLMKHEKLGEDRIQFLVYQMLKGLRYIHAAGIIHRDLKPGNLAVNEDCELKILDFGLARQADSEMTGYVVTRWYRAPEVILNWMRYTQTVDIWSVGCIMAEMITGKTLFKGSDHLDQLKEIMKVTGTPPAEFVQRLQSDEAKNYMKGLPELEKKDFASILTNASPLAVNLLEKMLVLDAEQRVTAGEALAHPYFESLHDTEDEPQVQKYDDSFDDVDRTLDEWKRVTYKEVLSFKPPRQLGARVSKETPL
Sequence of BMPR1A (human) (P36894 whole entry, looked up): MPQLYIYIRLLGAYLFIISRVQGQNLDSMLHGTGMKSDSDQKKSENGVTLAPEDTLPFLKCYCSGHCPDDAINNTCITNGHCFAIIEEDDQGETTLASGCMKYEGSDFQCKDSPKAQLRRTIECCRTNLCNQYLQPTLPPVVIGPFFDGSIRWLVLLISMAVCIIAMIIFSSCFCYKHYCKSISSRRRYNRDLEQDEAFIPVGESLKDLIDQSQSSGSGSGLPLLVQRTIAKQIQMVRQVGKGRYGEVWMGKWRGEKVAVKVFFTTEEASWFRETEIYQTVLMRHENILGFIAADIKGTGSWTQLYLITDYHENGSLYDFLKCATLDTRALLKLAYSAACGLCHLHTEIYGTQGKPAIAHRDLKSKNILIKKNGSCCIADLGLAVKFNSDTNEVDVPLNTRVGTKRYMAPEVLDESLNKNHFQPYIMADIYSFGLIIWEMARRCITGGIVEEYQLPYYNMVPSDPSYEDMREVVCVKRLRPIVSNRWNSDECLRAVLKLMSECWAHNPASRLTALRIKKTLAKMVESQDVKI
Sequence of DDR1 (human) (Q08345 whole entry, looked up): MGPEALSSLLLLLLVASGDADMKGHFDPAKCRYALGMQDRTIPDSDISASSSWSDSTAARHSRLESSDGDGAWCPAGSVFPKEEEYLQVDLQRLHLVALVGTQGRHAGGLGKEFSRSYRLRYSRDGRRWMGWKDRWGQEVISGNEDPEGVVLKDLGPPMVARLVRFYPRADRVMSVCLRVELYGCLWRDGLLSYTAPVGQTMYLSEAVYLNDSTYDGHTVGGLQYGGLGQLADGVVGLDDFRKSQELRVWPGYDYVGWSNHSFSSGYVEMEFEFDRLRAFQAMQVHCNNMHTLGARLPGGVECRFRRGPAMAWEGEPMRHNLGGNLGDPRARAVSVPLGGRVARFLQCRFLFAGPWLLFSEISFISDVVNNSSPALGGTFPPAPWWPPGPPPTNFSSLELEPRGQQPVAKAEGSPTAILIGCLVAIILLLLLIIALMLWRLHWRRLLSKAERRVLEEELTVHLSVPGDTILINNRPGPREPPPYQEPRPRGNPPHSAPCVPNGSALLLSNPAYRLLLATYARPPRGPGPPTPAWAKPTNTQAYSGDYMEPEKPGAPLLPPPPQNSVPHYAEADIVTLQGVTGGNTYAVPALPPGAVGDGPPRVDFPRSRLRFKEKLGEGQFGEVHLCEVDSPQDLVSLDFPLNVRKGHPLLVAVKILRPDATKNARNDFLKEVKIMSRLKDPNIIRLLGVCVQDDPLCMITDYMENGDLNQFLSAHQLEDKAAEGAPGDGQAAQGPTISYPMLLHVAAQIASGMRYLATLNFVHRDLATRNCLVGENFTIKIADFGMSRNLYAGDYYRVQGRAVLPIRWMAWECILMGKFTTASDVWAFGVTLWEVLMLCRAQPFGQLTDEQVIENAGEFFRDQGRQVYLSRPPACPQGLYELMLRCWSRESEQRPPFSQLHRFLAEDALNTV
Sequence of INSRR (human) (P14616 whole entry, looked up): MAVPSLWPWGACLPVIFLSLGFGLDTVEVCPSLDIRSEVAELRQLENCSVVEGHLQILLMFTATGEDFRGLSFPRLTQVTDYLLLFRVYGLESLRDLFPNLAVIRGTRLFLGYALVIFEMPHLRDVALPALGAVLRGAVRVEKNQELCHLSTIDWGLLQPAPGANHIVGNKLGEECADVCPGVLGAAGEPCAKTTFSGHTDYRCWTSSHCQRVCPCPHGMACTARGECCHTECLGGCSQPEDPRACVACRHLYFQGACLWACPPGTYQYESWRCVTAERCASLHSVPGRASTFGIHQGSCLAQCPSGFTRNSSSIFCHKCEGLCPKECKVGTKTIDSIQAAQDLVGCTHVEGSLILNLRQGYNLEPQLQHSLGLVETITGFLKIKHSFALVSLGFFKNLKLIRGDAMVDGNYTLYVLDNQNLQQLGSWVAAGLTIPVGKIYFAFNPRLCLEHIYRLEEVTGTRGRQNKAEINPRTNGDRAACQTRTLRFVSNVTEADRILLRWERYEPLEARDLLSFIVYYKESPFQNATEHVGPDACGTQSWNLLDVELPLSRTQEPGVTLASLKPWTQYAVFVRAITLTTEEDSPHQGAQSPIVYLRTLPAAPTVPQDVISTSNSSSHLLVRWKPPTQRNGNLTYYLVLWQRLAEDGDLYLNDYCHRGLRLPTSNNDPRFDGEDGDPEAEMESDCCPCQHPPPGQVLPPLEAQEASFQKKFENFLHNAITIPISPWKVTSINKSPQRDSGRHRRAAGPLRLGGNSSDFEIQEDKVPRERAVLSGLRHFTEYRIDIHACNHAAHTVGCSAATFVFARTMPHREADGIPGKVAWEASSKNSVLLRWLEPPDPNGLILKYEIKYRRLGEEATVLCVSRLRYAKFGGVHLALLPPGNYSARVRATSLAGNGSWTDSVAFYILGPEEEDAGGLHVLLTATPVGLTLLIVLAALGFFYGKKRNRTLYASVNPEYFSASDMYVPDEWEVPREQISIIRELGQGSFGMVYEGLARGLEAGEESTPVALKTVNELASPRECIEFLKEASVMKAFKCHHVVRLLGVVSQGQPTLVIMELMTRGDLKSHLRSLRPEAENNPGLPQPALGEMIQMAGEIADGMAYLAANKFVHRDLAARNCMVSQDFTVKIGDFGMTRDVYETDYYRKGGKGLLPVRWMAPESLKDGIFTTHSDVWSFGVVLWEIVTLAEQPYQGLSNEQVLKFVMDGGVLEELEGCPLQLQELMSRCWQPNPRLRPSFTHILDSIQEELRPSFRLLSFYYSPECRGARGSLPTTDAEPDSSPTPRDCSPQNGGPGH
Sequence of CDK19 (human) (Q9BWU1 whole entry, looked up): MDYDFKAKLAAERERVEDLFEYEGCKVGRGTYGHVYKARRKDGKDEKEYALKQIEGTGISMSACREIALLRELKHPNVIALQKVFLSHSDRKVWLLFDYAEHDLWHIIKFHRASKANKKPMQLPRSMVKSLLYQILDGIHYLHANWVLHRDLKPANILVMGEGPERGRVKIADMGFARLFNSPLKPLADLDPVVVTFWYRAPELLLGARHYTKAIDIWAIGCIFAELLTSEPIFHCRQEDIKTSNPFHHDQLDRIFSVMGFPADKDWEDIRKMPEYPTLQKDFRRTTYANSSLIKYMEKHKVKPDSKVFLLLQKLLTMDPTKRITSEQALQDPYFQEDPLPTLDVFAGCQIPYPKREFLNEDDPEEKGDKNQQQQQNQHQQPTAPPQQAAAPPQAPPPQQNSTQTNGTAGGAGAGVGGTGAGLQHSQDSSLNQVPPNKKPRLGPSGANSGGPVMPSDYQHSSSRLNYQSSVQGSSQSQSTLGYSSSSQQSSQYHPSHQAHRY

N#Cc1ccc2ncnc(NCCc3ccc4ccccc4c3)c2c1
kinase still bound, per cent of control [1]: 97% | kinase still bound, per cent of control [2]: 100% | kinase still bound, per cent of control [3]: 100% | kinase still bound, per cent of control [4]: 100% | kinase still bound, per cent of control [5]: 60% | kinase still bound, per cent of control [6]: 99% | kinase still bound, per cent of control [7]: 86% | kinase still bound, per cent of control [8]: 100% | kinase still bound, per cent of control [9]: 100% | kinase still bound, per cent of control [10]: 93% | kinase still bound, per cent of control [11]: 95% | kinase still bound, per cent of control [12]: 97% | kinase still bound, per cent of control [13]: 100% | kinase still bound, per cent of control [14]: 81% | kinase still bound, per cent of control [15]: 80% | kinase still bound, per cent of control [16]: 100% | kinase still bound, per cent of control [17]: 0.8% | kinase still bound, per cent of control [18]: 100% | kinase still bound, per cent of control [19]: 78% | kinase still bound, per cent of control [20]: 75% | kinase still bound, per cent of control [21]: 96% | kinase still bound, per cent of control [22]: 92% | kinase still bound, per cent of control [23]: 99% | kinase still bound, per cent of control [24]: 71% | kinase still bound, per cent of control [25]: 100% | kinase still bound, per cent of control [26]: 100% | kinase still bound, per cent of control [27]: 100% | kinase still bound, per cent of control [28]: 100% | kinase still bound, per cent of control [29]: 92% | kinase still bound, per cent of control [30]: 64% | kinase still bound, per cent of control [31]: 71% | kinase still bound, per cent of control [32]: 89% | kinase still bound, per cent of control [33]: 79% | kinase still bound, per cent of control [34]: 92% | kinase still bound, per cent of control [35]: 100% | kinase still bound, per cent of control [36]: 85% | kinase still bound, per cent of control [37]: 100% | kinase still bound, per cent of control [38]: 74% | kinase still bound, per cent of control [39]: 98% | kinase still bound, per cent of control [40]: 95% | kinase still bound, per cent of control [41]: 87% | kinase still bound, per cent of control [42]: 85% | kinase still bound, per cent of control [43]: 89%
